In publication PMC7306898, “Concentration-Dependent Activity of Hydromethylthionine on Clinical Decline and Brain Atrophy in a Randomized Controlled Trial in Behavioral Variant Frontotemporal Dementia” (Journal of Alzheimer's Disease, 2020):

Experiments:
bvFTD patients [1] = test: Whole brain volume (WBV) change by MRI (Boundary Shift Integral); type: in vivo, human
Excerpt: (§1) The two doses were provided in identical blister packages as visually identical oral tablets to be taken for up to 52 weeks. The primary outcome was the Addenbrookes Cognitive Examination – Revised (ACE-R). The Functional Activities Questionnaire (FAQ) and reduction in progression of whole brain atrophy were alternative co-primary outcomes. Other outcomes included: Modified Alzheimer’s Disease Cooperative Study – Clinical Global Impression of Change (Modified-CGIC) determined by a third independent rater; Frontotemporal Dementia Rating Scale (FRS); MMSE (from MMSE items incorporated into ACE-R); Addenbrookes Cognitive Examination – III (a revised version of ACE-R which excludes MMSE items subject to copyright restrictions); change in brain volume measured by MRI in frontal and temporal lobes (FTV) and lateral ventricles (LVV); and the effect of hydromethylthionine in patients with known genetic mutations associated with bvFTD. Blood was collected prospectively for the purpose of population PK analyses.
MRI scans were obtained at screening and weeks 16, 32, and 52. The acquisition protocol was standardized across sites and all data were centrally collected, quality-controlled, and analyzed by the imaging core laboratory (Bioclinica). […] For data passing quality-control, baseline volume was automatically assessed using FreeSurfer v5.3, while volume changes were assessed using Boundary Shift Integral (whole brain, lateral ventricles) and Tensor-Based Morphometry (frontal and temporal lobes). […]
The primary analyses were specified as a mixed model, repeated-measures analysis with an unstructured covariance matrix and no imputation for missing data. The model included visit (three levels corresponding to assessments at weeks 16, 32, and 52), treatment group (two levels, 4 mg or 100 mg twice a day), a visit by treatment group interaction term, use of AD-labelled medications (two levels, using or not using), geographic region (three levels: North America, Asia/Australia, Europe), and baseline value of the variable analyzed. […]

bvFTD patients [2] = test: Modified-CGIC, 52-week Phase III trial; type: in vivo, human
Excerpt: as §1
The primary analyses were specified as a mixed model, repeated-measures analysis with an unstructured covariance matrix and no imputation for missing data. The model included visit (three levels corresponding to assessments at weeks 16, 32, and 52), treatment group (two levels, 4 mg or 100 mg twice a day), a visit by treatment group interaction term, use of AD-labelled medications (two levels, using or not using), geographic region (three levels: North America, Asia/Australia, Europe), and baseline value of the variable analyzed. The individual comparisons were implemented through contrasts. The Bonferroni-Holm correction was used to take account of multiplicity arising from alternative co-primary outcomes (FAQ and whole brain atrophy). We used the same method for all secondary analyses in predefined gated sequences such that no further adjustment of alpha (0.05) was needed.
The concentration-response analyses used a Mixed-effect Model Repeat Measurement (MMRM) with per-subject correction and an unstructured covariance matrix according to the following formula: […]

bvFTD patients [3] = test: Exposure-response and expanded Hill equation analysis; type: in vivo, human
Experimental: The protocol specified that PK plasma sampling was to be conducted only at sites with adequate facilities (i.e., a refrigerated centrifuge and adequate capability to freeze samples reliably). Blinded analyses were conducted at the University of Aberdeen GLP Test Facility. […] The method was validated for use in the Phase III studies over the range 0.2 to 10 ng/ml. […] Model development and estimation of steady state maximum plasma concentration (Cmax,ss) were determined independently by the Institute of Clinical Pharmacodynamics (ICPD, NY, USA). Cmax,ss estimates using a model validated in Phase I studies were based on in-clinic plasma concentration data obtained on Day 1 when the dose-sampling interval was accurately recorded. […] Change in ACE-R, ACE-III, FAQ, MMSE, Modified-CGIC, FRS, whole brain volume (WBV), lateral ventricular volume (LVV), and frontotemporal volume (FTV), as well as UPDRS Part III, were expressed as a function of Cmax,ss estimates grouped into four groups described in the results section. Cmax,ss values outside 3x the interquartile range were excluded from determination of concentration-response relationships, but were included in inferential statistical analyses.
A further analysis was undertaken (HS, BOS) using a modified form of the Hill equation which is commonly used in the analysis of concentration-response data in order to estimate the minimum and maximum plasma concentrations for expected treatment response over 52 weeks. […] In addition, a linear term was added to permit trends occurring at high concentrations to be included in the model. […] The modified Hill equation was applied to the data in the form:
change in parameter = Emin - (Emax x ([C]- 0.29))/(EC50 + ([C] -0.29)) + (A x ([C] -0.29))
where dose is in mg/day and Cmax,ss is in ng/ml units.

red blood cells = conditions: cited from earlier work
[4] = 8 mg/day, plasma levels above vs below […] threshold

CN(C)c1ccc2c(c1)Sc1cc(N(C)C)ccc1N2 [hydromethylthionine, leuco-methylthioninium bis(hydromethanesulphonate)]
WBV: Decline±SEM for LMTM 8 mg/day group (bvFTD patients [1]; 8 mg/day, modeled change from baseline at 52 weeks): –21.64±1.56 cm^3
reduction in whole brain atrophy (bvFTD patients [1]; [4]): 42%
WBV: Difference±SEM from LMTM 8 mg/day for 200 mg/day (bvFTD patients [1]; 200 mg/day vs 8 mg/day, 52 weeks): –1.35±2.32 cm^3
CGIC: Decline±SEM for LMTM 8 mg/day group (bvFTD patients [2]; 8 mg/day (n = 110), 52 weeks): –1.05±0.11
reduction in decline, Modified-CGIC (bvFTD patients [2]; [4]): 48%
CGIC: Difference±SEM from LMTM 8 mg/day for 200 mg/day (bvFTD patients [2]; 200 mg/day (n = 104) vs 8 mg/day, 52 weeks): –0.04±0.16
plasma levels over which there are steep concentration-response relationships on clinical and MRI outcomes (bvFTD patients [3]; 8 mg/day dose, bvFTD): 0.3 to 0.6 ng/mL
dose at which pharmacological activity is predicted to peak in bvFTD (bvFTD patients [3]; Hill equation analyses): ~30 mg/day
doses at which treatment responses in bvFTD are predicted to be maximal / roughly comparable (bvFTD patients [3]; Hill equation analysis): 20 to 60 mg/day
predicted treatment effect on whole brain atrophy (bvFTD patients [3]; at 30 mg/day dose): 18.52 cm^3
predicted treatment effect on the FAQ scale (bvFTD patients [3]; at 30 mg/day dose, mean, bootstrap analysis): 7.73 units
theoretical dose corresponding to the upper limiting concentration (bvFTD patients [3]; expanded Hill equation): 301 mg/day
lower (minimum) limiting plasma concentration required for treatment response (bvFTD patients [3]; expanded Hill equation, 8 mg/day): 0.29 ng/mL
upper limiting concentration at which the treatment effect would be lost (bvFTD patients [3]; expanded Hill equation, whole brain volume, 200 mg/day terciles): 13.6 ng/mL
plasma concentration (Cmax,ss) threshold required for clinical pharmacological activity in bvFTD (bvFTD patients [3]; upper limit of the lowest 35% group at 8 mg/day): 0.346 ng/ml
efficiency of uptake into red blood cells relative to MTC (red blood cells): 20 fold
